In patent US20240059703A1 (AMGEN INC., priority 2021, published 2024) one finds IC50 data, which are given here for 8 molecules.

In one assay the target is KRAS G12C (Homo sapiens (Human), UniProt P01116, C118A/G12C). Description: 2 h coupled exchange assay. Format: biochemical. Particulars: Avg 2 h Coupled exchange IC50, 2 h compound pre-incubation, SOS-mediated nucleotide exchange. The protocol:
The term “2 h coupled exchange assay” or “20 h coupled exchange assay” as used herein refers to the assay described in the Section entitled “BIOLOGICAL EVALUATION.”

For assay [1], the system named is MIA PaCa-2 (human pancreatic carcinoma) cells. The assay can be described thus: Cell Viability Assay (CellTiter-Glo), MIA PaCa-2. It counts as cell-based. The conditions noted are these: Homo sapiens, MIA PaCa-2, 72 h. The protocol:
Serially-diluted compound or DMSO was added to the cells, and plates were incubated at 37° C., 5% CO2 for 72 h. Cell viability was measured using a CellTiter-Glo® Luminescent Cell Viability Assay kit (Promega) according to the manufacturer's protocol. The luminescence signal of treated samples was normalized to DMSO control, and data were analyzed using a 4-parameter logistic model to calculate IC50 values.

The test system of assay [2] is A549 (human lung carcinoma) cells. The assay can be described thus: Cell Viability Assay (CellTiter-Glo), A549. Format: cell-based. The conditions noted are these: Homo sapiens, A549, 72 h. In a few lines: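 After a 72 h exposure to serial compound dilutions at 37° C, luminescent ATP content was measured with CellTiter-Glo. The cells were A549 or MIA PaCa-2, seeded at 1.67E+04 cells/mL in RPMI 1640 with 10% serum. Signals were normalized to DMSO controls and IC50 fitted with a 4-parameter logistic model.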

Chain of KRAS G12C (P01116 other isoform, or with tags, fused parts or gaps G12C/C118A): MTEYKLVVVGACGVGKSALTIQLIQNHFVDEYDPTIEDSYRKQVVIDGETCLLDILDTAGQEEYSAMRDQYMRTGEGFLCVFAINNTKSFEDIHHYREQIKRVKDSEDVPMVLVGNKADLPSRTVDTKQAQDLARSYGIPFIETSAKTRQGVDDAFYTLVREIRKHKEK

As for `C=CC(=O)N1CC2(CCN(c3nc4c(c(-c5c(C)ccn6cncc56)c3C#N)C[C@H]3C[C@@H]4C3(C)C)C2)C1` [Example 12-19, (1R,9R)-10,10-dimethyl-6-(7-methylimidazo[1,5-a]pyridin-8-yl)-4-(2-(2-propenoyl)-2,6-diazaspiro[3.4]octan-6-yl)-3-azatricyclo[7.1.1.0^2,7] undeca-2,4,6-triene-5-carbonitrile], the IC50 on KRAS G12C is 37 nM; in assay [1] it was 18 nM; in assay [2], 3740 nM.
In the case of `C=CC(=O)N1CC2(CCN(c3nc4c(c(-c5c(C)ccc6c(Cl)c[nH]c56)c3C#N)COC(C)(C)C4)C2)C1` [Example 12-20, 4-(3-chloro-6-methyl-1H-indol-7-yl)-7,7-dimethyl-2-(2-(2-propenoyl)-2,6-diazaspiro[3.4]octan-6-yl)-7,8-dihydro-5H-pyrano[4,3-b]pyridine-3-carbonitrile], the IC50 on KRAS G12C was 105 nM; in assay [1], 2570 nM; in assay [2], > 5000 nM.
For the molecule `C=CC(=O)N1CC2(CCN(c3nc4c(c(-c5c(C)c(Cl)cc6cnn(C)c56)c3C)CCN(C(C)C)C4)C2)C1` [Example 12-22, 1-(6-(4-(5-chloro-1,6-dimethyl-1H-indazol-7-yl)-3-methyl-7-(2-propanyl)-5,6,7,8-tetrahydro-1,7-naphthyridin-2-yl)-2,6-diazaspiro[3.4]octan-2-yl)-2-propen-1-one], the results for the concentration for half-maximal inhibition (IC50) (at KRAS G12C; in assay [1]; in assay [2]) were 37 nM, 44 nM and > 5000 nM, respectively.
For the molecule `C=CC(=O)N1CC2(CCN(c3nc4c(c(-c5cc(O)cc(F)c5Cl)c3C#N)C[C@H]3C[C@@H]4C3(C)C)C2)C1` [Example 12-34, (1R,9R)-6-(2-chloro-3-fluoro-5-hydroxyphenyl)-10,10-dimethyl-4-(2-(2-propenoyl)-2,6-diazaspiro[3.4]octan-6-yl)-3-azatricyclo[7.1.1.0^2,7] undeca-2,4,6-triene-5-carbonitrile], the figures for the IC50 (at KRAS G12C; in assay [1]; in assay [2]) were 20 nM, 92 nM and > 5000 nM, respectively.
The like results for `C=CC(=O)N1CC2(CCN(c3nc4c(c(-c5cc(O)cnc5Cl)c3C#N)C[C@H]3C[C@@H]4C3(C)C)C2)C1` [Example 12-35, (1R,9R)-6-(2-chloro-5-hydroxy-3-pyridinyl)-10,10-dimethyl-4-(2-(2-propenoyl)-2,6-diazaspiro[3.4]octan-6-yl)-3-azatricyclo[7.1.1.0^2,7] undeca-2,4,6-triene-5-carbonitrile] were, in that order, 44 nM, 1090 nM and > 5000 nM.
In the same order, the values of `C=CC(=O)N1CC2(CCN(c3nc4c(c(-c5cccc6cc(O)ccc56)c3C#N)COC(C)(C)C4)C2)C1` [Example 12-41, 4-(6-hydroxy-1-naphthalenyl)-7,7-dimethyl-2-(2-(2-propenoyl)-2,6-diazaspiro[3.4]octan-6-yl)-7,8-dihydro-5H-pyrano[4,3-b]pyridine-3-carbonitrile] are 110 nM, 502 nM and > 5000 nM.
In the same order, the values of `C=CC(=O)N1CC2(CCN(c3nc4c(c(-c5cccc6c(F)c(O)ccc56)c3C)COC(C)(C)C4)C2)C1` [Example 12-45, 1-(6-(4-(5-fluoro-6-hydroxy-1-naphthalenyl)-3,7,7-trimethyl-7,8-dihydro-5H-pyrano[4,3-b]pyridin-2-yl)-2,6-diazaspiro[3.4]octan-2-yl)-2-propen-1-one] are 760 nM, > 5000 nM and > 5000 nM.
Turning to `Cc1ccc2[nH]ncc2c1-c1c(C#N)c(N2CCC3(CN(C(=O)/C=C/CN(C)C)C3)C2)nc2c1CCC(C)(C)C2` [Example 13-2, 2-(2-((2E)-4-(dimethylamino)-2-butenoyl)-2,6-diazaspiro[3.4]octan-6-yl)-7,7-dimethyl-4-(5-methyl-1H-indazol-4-yl)-5,6,7,8-tetrahydro-3-quinolinecarbonitrile], the IC50 turned out to be 61 nM on KRAS G12C, 366 nM in assay [1] and 3700 nM in assay [2].
